Assay [1] has as its target T1, BACE1 (Homo sapiens, UniProt P56817). In words: In Vitro Enzymatic BACE FRET (Fluorescence Resonance Energy Transfer) Assay. In kind it is biochemical. As to conditions: read-out: BACE1 FRET assay. The essentials: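 Buffer: 0.05 M acetate, pH 4.2, 10% DMSO final, 100 uM genapol. Start: FRET substrate 50 nM. Incubation 1 h. Stop: Tris to neutral pH. Read: fluorescence.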

In assay [2] the target is T1, BACE1. In words: In Vitro BACE Cell-based Assay (HEK cell assay): Aβ40 in conditioned medium of cells stably expressing Amyloid Precursor Protein, sandwich ELISA. As to conditions: read-out: HEK cell assay. A digest of the protocol:
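Read-out is time-resolved fluorescence of Aβ40 in supernatant, captured by pAb40 and detected with biotinylated 6E10 plus Streptavidin-Europium. Cells stably expressing APP received compounds for 24 h over 10 concentrations starting at 100 μM or 10 μM, final DMSO 0.1%.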
Background: In an ELISA, binding on a coated surface is turned into a signal by an enzyme label.

Setting [3] is: in vitro BACE FRET enzyme assay, IC50 class symbols.
Where [4] appears, read: HEK cell-based assay, Aβ40 in conditioned medium, IC50 class symbols.

T1 sequence (P56817 46-501, species assumed): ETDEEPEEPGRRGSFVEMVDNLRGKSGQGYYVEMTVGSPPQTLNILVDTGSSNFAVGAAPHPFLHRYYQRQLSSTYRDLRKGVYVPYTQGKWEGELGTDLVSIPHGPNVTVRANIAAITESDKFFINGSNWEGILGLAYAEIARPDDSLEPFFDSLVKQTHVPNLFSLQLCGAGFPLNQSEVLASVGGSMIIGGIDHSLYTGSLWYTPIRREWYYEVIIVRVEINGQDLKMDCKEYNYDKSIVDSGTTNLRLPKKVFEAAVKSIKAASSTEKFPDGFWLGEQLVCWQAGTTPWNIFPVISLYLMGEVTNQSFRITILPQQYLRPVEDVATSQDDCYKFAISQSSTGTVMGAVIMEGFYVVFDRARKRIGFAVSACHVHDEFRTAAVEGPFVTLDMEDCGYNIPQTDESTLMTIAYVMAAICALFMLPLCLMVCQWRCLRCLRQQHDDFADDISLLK

As to `CC(C)(C)COc1ccc2c(c1)[C@@]1(COC(N)=N1)c1cc(-c3cccnc3)cnc1O2` [Example 93, (5S)-7-(2,2-dimethylpropoxy)-3-(3-pyridinyl)spiro[chromeno[2,3-b]pyridine-5,4′-[1,3]oxazol]-2′-amine], the IC50 in assay [1] (Table II) was 0.1 to 1 µM; in assay [2] (Table II, Aβ40, 24 h incubation) it was 0.1 to 1 µM.
On to `NC1=N[C@@]2(CO1)c1cc(Br)ccc1Oc1ccc(Oc3ccccn3)cc12` [compound 206], for which the IC50 was over 5 µM in assay [1] (Table III, IC50's in uM ranges) and 0.1 to 1 µM in assay [2] (Table III, IC50's in uM ranges).
`COC(=O)/C=C/c1ccc2c(c1)[C@]1(COC(N)=N1)c1cc(-c3cncnc3)ccc1O2` [compound 993]: the IC50 in assay [1] was under 0.1 µM; in assay [2], 0.1 to 1 µM.
Consider `CC1(COc2cnc3c(c2)[C@]2(COC(N)=N2)c2cc(-c4ccccc4)ccc2O3)COC1` [compound 459], for which the IC50 in assay [1] and in assay [2] (HEK cells) was under 0.1 µM in each case.
As for `NC1=NC2(CO1)c1cnc(Cl)cc1Oc1ccc(-c3cccnc3)cc12` (centres unmarked) [compound 727], the IC50 in assay [1] was 1 to 5 µM; in assay [2], over 5 µM.
Turning to `COc1cncc(-c2ccc3c(c2)[C@@]2(COC(N)=N2)c2cc(C#CC(C)(C)OC)cnc2O3)c1` [compound 602], the IC50 in assay [1] (Table IV, class symbols) is under 0.1 µM; in assay [2] (Table IV, class symbols), under 0.1 µM.
Consider `COc1cnc2c(c1)[C@@]1(COC(N)=N1)c1cc(Br)ccc1O2` [compound 543], for which the IC50 in assay [1] (Table IV, class symbols) is over 5 µM; in assay [2] (Table IV, class symbols), over 5 µM.
For the compound `COc1ccc2c(c1)[C@]1(COC(N)=N1)c1cc(C#CC(C)(C)O)cnc1O2` [compound 903], the IC50 in assay [1] (Table IV, class symbols) is over 5 µM; in assay [2] (Table IV, class symbols) it was over 5 µM.
Turning to `CC(C)(C)COc1ccc2c(c1)[C@@]1(COC(N)=N1)c1cc(-c3ccccc3)cnc1O2` [compound 807], the IC50 is under 0.1 µM in assay [1] (Table IV, class symbols) and under 0.1 µM in assay [2] (Table IV, class symbols).
For the compound `CC(=O)c1ccccc1-c1ccc2c(c1)[C@@]1(COC(N)=N1)c1cc(OCC(C)(C)C)ccc1O2` [compound 974], the IC50 in assay [1] lay in the range of 0.1 to 1 µM; in assay [2], 1 to 5 µM.
Take `NC1=N[C@@]2(CO1)c1cc(-c3cccnc3)ccc1Oc1cnc(C(=O)CCCCO)cc12` [compound 612]: the IC50 in assay [1] (Table IV, class symbols) is under 0.1 µM; in assay [2] (Table IV, class symbols), 0.1 to 1 µM.
For `Cc1ccc(-n2ccc3c(c2=O)[C@@]2(COC(N)=N2)c2cc(-c4cccnc4)ccc2O3)cc1` [compound 566], the IC50 is 0.1 to 1 µM in assay [1] (Table IV, class symbols) and 0.1 to 1 µM in assay [2] (Table IV, class symbols).
Turning to `NC1=N[C@]2(CO1)c1cc(C3=CCSCC3)ccc1Oc1ccc(-c3cncnc3)cc12` [compound 831], the IC50 was under 0.1 µM in assay [1] (Table IV, class symbols) and under 0.1 µM in assay [2] (Table IV, class symbols).
Take `NC1=N[C@@]2(CO1)c1cc(-c3cncnc3)ccc1Oc1ccc(N3CC(F)(F)C3)cc12` [compound 508]: the IC50 in assay [1] and in assay [2] (HEK cells) was under 0.1 µM each time.
For the compound `C[C@@H]1CN(c2cc(F)c3c(c2)[C@]2(COC(N)=N2)c2cc(-c4cccnc4)ccc2O3)C[C@H](C)O1` [compound 483], the IC50 in assay [1] and in assay [2] (HEK cells) was under 0.1 µM throughout.
Consider `CC(C)(C)COc1ccc2c(c1)[C@@]1(COC(N)=N1)c1cc(-c3ncccn3)ccc1O2` [compound 186], for which the IC50 in assay [1] (Table III, IC50's in uM ranges) was under 0.1 µM; in assay [2] (Table III, IC50's in uM ranges), under 0.1 µM.
Consider `CC(C)(C)COc1ccc2c(c1)[C@@]1(COC(N)=N1)c1cc(-c3ccc(C#N)nc3)ccc1O2` [compound 782], for which the IC50 is under 0.1 µM in assay [1] and 0.1 to 1 µM in assay [2].
On to `CC1(COc2ccc3c(c2)[C@]2(COC(N)=N2)c2cc(C#CC4CC4)ccc2O3)COC1` [compound 197], for which the IC50 in assay [1] (Table III, IC50's in uM ranges) is under 0.1 µM; in assay [2] (Table III, IC50's in uM ranges) it was under 0.1 µM.
As for `CC(C)(C)COc1ccc2c(c1)[C@@]1(COC(N)=N1)c1cc(-c3csc(C(F)F)c3)ccc1O2` [compound 783], the results for the IC50 in assay [1] and in assay [2] were under 0.1 µM and 1 to 5 µM, respectively.
In the case of `NC1=N[C@]2(CO1)c1cc(CCC3(O)CCC3)ccc1Oc1ccc(-c3cncnc3)cc12` [compound 797], the IC50 in assay [1] (Table IV, class symbols) was under 0.1 µM; in assay [2] (Table IV, class symbols) it was under 0.1 µM.
On to `CCCOc1cc2c(cc1F)Oc1ccc(-c3cncnc3)cc1[C@]21COC(N)=N1` [compound 941], for which the IC50 lay in the range of 0.1 to 1 µM in assay [1] and 1 to 5 µM in assay [2].
Regarding `COc1ccc2c(c1)[C@]1(COC(N)=N1)c1cc(NC(=O)C(F)(F)F)ccc1O2` [compound 651], the IC50 in assay [1] (Table IV, class symbols) is 0.1 to 1 µM; in assay [2] (Table IV, class symbols) it was 1 to 5 µM.
The matching figures for `CC(C)(O)C#Cc1cnc2c(c1)[C@]1(COC(N)=N1)c1cc(-c3ccc(F)nc3)ccc1O2` [compound 794]: under 0.1 µM and under 0.1 µM.
The matching figures for `NC1=N[C@]2(CO1)c1cc(CCC3(O)CCC3)ccc1Oc1ccc(-c3cccnc3)cc12` [compound 859]: under 0.1 µM and under 0.1 µM.
For the compound `CCOC1CN(c2ccc3c(c2)[C@]2(COC(N)=N2)c2cc(-c4cccnc4)ccc2O3)C1` [compound 415], the IC50 in assay [1] (setting [3]) and in assay [2] (setting [4]) was under 0.1 µM in each case.
Regarding `COc1cc(-c2cc3c(cn2)Oc2ccc(-c4cccnc4F)cc2[C@@]32COC(N)=N2)ccn1` [compound 430], the results for the IC50 in assay [1] and in assay [2] (HEK cells) were under 0.1 µM and 0.1 to 1 µM, respectively.
For the compound `COc1ccc(-c2ccc3c(c2)[C@@]2(COC(N)=N2)c2cc(C#CC(C)(C)OC)cnc2O3)cn1` [compound 767], the IC50 in assay [1] and in assay [2] was 0.1 to 1 µM each time.
As to `CC(C)(O)C#Cc1cnc2c(c1)[C@@]1(COC(N)=N1)c1cc(-c3ccccc3)ccc1O2` [compound 709], the values for the IC50 in assay [1] and in assay [2] were 1 to 5 µM and over 5 µM, respectively.
Consider `COc1cncc(-c2ccc3c(c2)[C@@]2(COC(N)=N2)c2cc(OCC(C)(C)C)cnc2O3)c1` [compound 383], for which the IC50 in assay [1] (setting [3]) and in assay [2] (setting [4]) was under 0.1 µM in each case.
On to `COc1ccc2c(c1)[C@@]1(COC(N)=N1)c1c(ccc(-c3cncnc3)c1F)O2` [compound 899], for which the IC50 in assay [1] (Table IV, class symbols) was 0.1 to 1 µM; in assay [2] (Table IV, class symbols), 1 to 5 µM.
Taken in the same sequence, the figures for `NC1=N[C@@]2(CO1)c1cc(Br)ccc1Oc1c(F)cccc12` [compound 558] were 1 to 5 µM and over 5 µM.
The matching figures for `N#Cc1cccc(-c2ccc3c(c2)[C@]2(COC(N)=N2)c2cccnc2O3)c1` [compound 610]: 0.1 to 1 µM and 1 to 5 µM.
On to `COc1ccc2c(c1)[C@@]1(COC(N)=N1)c1cc(Br)cnc1O2` [compound 680], for which the IC50 in assay [1] and in assay [2] was over 5 µM throughout.
Take `Cn1cc(-c2ccc3c(c2)[C@]2(COC(N)=N2)c2cc(-c4ccc(F)nc4)ccc2O3)cn1` [compound 631]: the IC50 was under 0.1 µM in assay [1] (Table IV, class symbols) and under 0.1 µM in assay [2] (Table IV, class symbols).
Regarding `CC(C)(C)C#Cc1ccc2c(c1)[C@]1(COC(N)=N1)c1cc(-c3ccc(F)nc3)ccc1O2` [147a], the IC50 in assay [1] (Table III, IC50's in uM ranges) was under 0.1 µM; in assay [2] (Table III, IC50's in uM ranges), 0.1 to 1 µM.
Regarding `Cc1cc(-c2ccc3c(c2)[C@]2(COC(N)=N2)c2cc(-c4cccnc4)ccc2O3)on1` [compound 693], the IC50 in assay [1] and in assay [2] was under 0.1 µM in each case.
As to `CC(C)(F)COc1cnc2c(c1)[C@]1(COC(N)=N1)c1cc(-c3cccnc3)ccc1O2` [compound 450], the IC50 in assay [1] and in assay [2] (HEK cells) was under 0.1 µM each time.
Regarding `COc1cc2c(cc1F)Oc1ccc(-c3cncnc3)cc1[C@@]21COC(N)=N1` [154b], the IC50 in assay [1] (Table III, IC50's in uM ranges) was under 0.1 µM; in assay [2] (Table III, IC50's in uM ranges), 0.1 to 1 µM.
Take `CC(C)(C)COc1ccc2c(n1)[C@@]1(COC(N)=N1)c1cc(Br)ccc1O2` [compound 734]: the IC50 in assay [1] and in assay [2] was over 5 µM each time.
For `NC1=N[C@@]2(CO1)c1cc(-c3cccnc3)ccc1Oc1ccc(N3CCOCC3)cc12` [compound 764], the IC50 in assay [1] and in assay [2] was under 0.1 µM each time.
Take `COc1ccc2c(c1)[C@]1(COC(N)=N1)c1cc(C#CC(C)(C)OC)cnc1O2` [compound 901]: the IC50 in assay [1] (Table IV, class symbols) was 1 to 5 µM; in assay [2] (Table IV, class symbols), over 5 µM.
As to `CC1(C)C[C@H](c2ccc3c(c2)[C@]2(COC(N)=N2)c2cc(-c4cncnc4)ccc2O3)CCO1` [compound 482], the IC50 in assay [1] and in assay [2] (HEK cells) was under 0.1 µM in each case.
Take `COc1ccc2c(c1)C1(COC(N)=N1)c1cc(-c3ccccc3C)ccc1O2` (centres unmarked) [Example 32, 2′-methoxy-7′-(2-methylphenyl)spiro[1,3-oxazole-4,9′-xanthen]-2-amine]: the IC50 was over 5 µM in assay [1] (Table 1) and 1 to 5 µM in assay [2] (Table 1, Aβ40, 24 h incubation).
For `NC1=N[C@]2(CO1)c1cc(-c3cccnc3)ccc1Oc1cnc(Cl)cc12` [compound 955], the IC50 is 1 to 5 µM in assay [1] and over 5 µM in assay [2].
Consider `NC1=N[C@@]2(CO1)c1cc(-c3cccnc3N3CCOCC3)ccc1Oc1cnc(N3CCOCC3)cc12` [compound 336], for which the IC50 in assay [1] (setting [3]) is under 0.1 µM; in assay [2] (setting [4]), 0.1 to 1 µM.
Turning to `NC1=N[C@@]2(CO1)c1cc(-c3cccnc3)ccc1Oc1ccc(-c3ccsc3)cc12` [compound 672], the IC50 in assay [1] and in assay [2] was under 0.1 µM each time.
Take `NC1=N[C@@]2(CO1)c1cc(-c3ccccc3)ccc1Oc1ncc(C3=CCOCC3)cc12` [compound 580]: the IC50 in assay [1] (Table IV, class symbols) is under 0.1 µM; in assay [2] (Table IV, class symbols), under 0.1 µM.
Regarding `COc1ccc2c(c1)[C@]1(COC(N)=N1)c1cc(NC(=O)c3ccccn3)ccc1O2` [compound 615], the IC50 in assay [1] (Table IV, class symbols) lay within 0.1 to 1 µM; in assay [2] (Table IV, class symbols), 0.1 to 1 µM.
Consider `CC(C)(C)C#Cc1cnc2c(c1)[C@]1(COC(N)=N1)c1cc(-c3cncnc3)cc(F)c1O2` [compound 537], for which the IC50 is under 0.1 µM in assay [1] (Table IV, class symbols) and 0.1 to 1 µM in assay [2] (Table IV, class symbols).

These data come from patent US8426447B2, “Spiro-tricyclic ring compounds as beta-secretase modulators and methods of use” (Amgen Inc., priority 2008, dated 2013).
